# Measured values as given in patent publication US10722530B2, “Methods of diagnosing and treating cancer” (CASE WESTERN RESERVE UNIVERSITY, priority 2016, dated 2020).
# Experiments:
# [1] = tested on: p53 mutant or deficient lines; assay: Clonogenic survival assay, panel of p53 mutant or deficient lines; conditions: for resistance compared with p53 WT cells: cell lines with p53 mutation or deficiency vs p53 WT; for effect of UDG depletion on cytotoxicity: shUDG vs shSCR, p53 mutant or deficient cells
# Source text: (§3) p53 or UDG knockdown was achieved via shRNA transduction. Lentiviral vectors LV-THM-shp53 (which also expresses a GFP reporter) or LV-Bleo-shp53 to perform p53 KD in WT HCT116 cells were obtained from Case Western Reserve University, Cleveland, Ohio Lentiviral vector targeting GFP (sh-GFP) was used as control. UDG shRNA vectors (shUDG: NM_003362.2-656s21c1, shUDG-2: NM_003362.2-758s21c1, and shUDG-3: NM_003362.2-893s21c1) were purchased from Sigma, and a scramble targeting shRNA vector (Sigma) was used as paired control. The lentiviral production and infection were performed as previously described. Cells stably infected with LV-THM-p53 were isolated by cell sorting on the basis of their GFP expression.
# (§4) Cancer cells (200-300 cells/well) were seeded in 6-well culture dishes and allowed to adhere overnight. For 5-FdU, cells were treated for 24 h, then gently washed with PBS, and incubated with fresh media for at least 10 days to allow individual colonies to form. […] After 10-18 days, the plates were stained with methylene blue. Colonies containing ≥50 cells were counted. The percentage of survival was determined relative to untreated control averaged over 3 independent experiments.
# H1299 = assay: Clonogenic survival assay; format: cell-based; conditions: Homo sapiens, NCI-H1299; H1299 (p53 null), 24 h treatment, colonies after at least 10 days
# Procedure: as §4
# DLD1 cells [2] = assay: DNA fiber assay (replication fork progression); format: cell-based, human; conditions: 100 nM 5-FdU 24 h; for reduction of mean fiber length: vs untreated
# Procedure: DNA fiber analysis was performed as described by Han et al. (J. Biol. (2015) 290:12370-8). Cells treated with 100 nM 5-FdU for 24 h were pulse-labeled with 100 μM chlorodeoxyuridine (CIdU) for 20 minutes, washed with PBS, and 25 μM Iododeoxyuridine (IdU) for 20 minutes. Cells were collected in PBS, and 2.5 μL of cell suspension was dropped on glass slide. 7.5 μL of lysis buffer (0.5% SDS, 200 mM Tris-HCl pH 7.4, 50 mM EDTA) was dropped on the cell suspension and lysis for 10 minutes. Slides were then tilted at 15° to spread the suspension and placed horizontally to allow air-dry. After drying, slides were fixed in 3:1 methanol:acetic acid for 15 minutes, washed with water, and placed at −20° C. overnight. Slides were then treated with 2.5 M HCl for 1 h, washed with PBS containing 0.1% Tween-20, washed twice with PBS, blocked in PBS containing 5% BSA and 0.1% Tween 20 for 20 minutes, and rinsed with PBS three times. After washing, 100 μL primary antibodies: mouse anti-BrdU/IdU (Becton Dickinson, 1:100) and rat anti-BrdU/CIdU (AbD Serotec, 1:400) diluted in PBS containing 5% BSA and 0.1% were added to incubate in a humid chamber for 4-6 h. After incubation, slides were washed with PBS three times, incubated with secondary fluorescent antibodies: sheep anti-mouse Alexa Fluor 488 (Life technologies) and donkey anti-rat Alexa Fluor 594 (Life technologies) diluted in PBS containing 5% BSA for 1 h. Slides were washed with PBS three times and mounted with Vectashield mounting medium. Image acquisition was performed on a Leica laser microscope. DNA fiber length was measured by using ImageJ software (NCl/NIH).
# DLD1 cells [3] = assay: AP site detection assay (genomic uracil and 5-FU); format: cell-based, human; conditions: for levels of AP sites: 0-200 nM 5-FdU 48 h
# Procedure: The amount of cellular AP sites was assessed as we previously described by using a NIR cyanine-based AP site probe. […] After the reaction, AP site probe with a final concentration of 25 μM was added and incubated at 37° C. for 1 h. Following incubation, extracted DNA was precipitated, and the supernatant was discarded. DNA pellets were resuspended in H2O, and DNA concentrations were measured and adjusted. The fluorescence intensities of each sample were analyzed with 760 nm excitation and emission scan of 790-847 nm.
# [4] = tested on: γH2AX foci in HEC1A cells; assay: γH2AX foci immunofluorescence staining; format: cell-based, human; conditions: 50 nM 5-FdU
# Procedure: (§1) Cells cultured on glass coverslips were treated with 5-FdU in the presence or absence of 10 μM caspase inhibitor Q-VD-OPH (BioVision Inc). Cells were fixed in 3.7% formaldehyde for 10 minutes, blocked with PBS containing 10% FBS and 0.1% Triton X-100 for 20 minutes, washed with PBS three times, and incubated with primary anti-γH2AX antibody (Millipore, dilution: 1:150) in PBS containing 0.1% Triton X-100 at 4° C. overnight. The cells were then washed with PBS three times, incubated with secondary antibodies (Alexa Fluor 594, Life Technologies; dilution: 1:400) in PBS containing 0.1% Triton X-100 for 1 h, and washed with PBS three times. The slides were mounted with antifade solution with DAPI (Cell Signaling) and visualized on a Leica laser microscope.
# γH2AX foci in DLD1 cells = assay: γH2AX foci immunofluorescence staining; format: cell-based, human; conditions: 50 nM 5-FdU
# Procedure: as §1
# HCT116 p53 WT cells [5] = conditions: HCT116 p53 WT, shUDG vs shSCR
# Source text: as §3, §4
# DLD1 cells [6] = assay: LC-MS/MS of uracil and 5-FU incorporated in cellular DNA; conditions: 5-FdU 100 and 200 nM 48 h
# Procedure: Genomic DNA was extracted from cells treated with 5-FdU via phenol-chloroform mixture. 80 μg of DNA sample was dissolved in 1×UDG reaction buffer (20 mM Tris-HCl, 1 mM EDTA and 1 mM dithiothreitol, pH 8.0) and incubated with UDG enzyme (1 μL, 5 units) for 1 h at 37° C. For LC-MS/MS analysis of DNA-incorporated uracil and 5-FU, 75 μL of the enzyme reaction mixture was obtained, and uracil-1,3-^15N2 was used as the internal standard (Sigma-Aldrich). All uracil and 5-FU standards, internal standard, and QC samples were prepared in 1×UDG reaction buffer. […] Quantitation of the analytes was accomplished by a AB Sciex API 3200 triple quadrupole tandem mass spectrometer (AB Sciex), which was operated in the negative multiple-reaction-monitoring (MRM) mode with mass transitions of m/z 110.8>42.0 for uracil, m/z 112.9>43.0 for uracil-1,3-^15N2 and m/z 129.0>42.0 for 5-FU. This method has lower limits of quantitation of 2.50 ng/mL and linear calibration ranges up to 500 ng/mL for both uracil and 5-FU with a sample injection volume of 15 μL, as well as a total analysis time of 6 min.
# HCT116 p53 WT cells [7] = assay: Flow cytometric assay of apoptosis (Annexin V/PI); format: cell-based, human; conditions: 25 nM 5-FdU 24 h, at 48 h, both UDG expressing and UDG depleted cells
# Procedure: (§2) Cells were seeded in 6-well tissue culture plates (1.5×10^5 cells/well) and allowed to attach overnight. Cells were then treated with 25 nM 5-FdU for 24 h, washed twice with PBS, replenished with drug-free medium at 48, 72, and 96 h. After recovery, the cells floating in the medium were collected. The adherent cells were trypsinized, pelleted, washed in ice-cold PBS, and resuspended in 1× Binding Buffer according to the manufacturer's instructions (FITC Annexin V Apoptosis Detection Kit, BD Pharmingen). Cells were then stained with FITC Annexin V and PI for 15 minutes at room temperature in the dark. Annexin V-FITC detects translocation of […] from the inner to the out cell membrane during early apoptosis, and PI can enter the cells in late apoptosis or necrosis. Untreated cells were used as control for the double staining. The cells were analyzed immediately after staining using a Attune NXT instrument and FlowJo software. For each measurement, at least 20,000 cells were counted.
# HCT116 p53 KO cells = assay: Flow cytometric assay of apoptosis (Annexin V/PI); format: cell-based, human; conditions: 25 nM 5-FdU 24 h
# Procedure: as §2
# A2780 = assay: Clonogenic survival assay; format: cell-based; conditions: Homo sapiens; A2780 (p53 wt), 24 h treatment, colonies after at least 10 days
# Procedure: as §4
# Procedure for DLD1 colon cancer cells: UDG knockdown was performed via shRNA transduction with validated clone from Sigma-Aldrich. […] A non-targeted scramble control shRNA clone (Sigma-Aldrich) was also used. Transfection of shRNA clones was performed according to manufacturer's specifications from Lipofectamine 2000 (Invitrogen). Lentiviral particles were produced via HEK293 cells, and targeted cells were infected and selected with puromycin. The stable UDG knockdown levels were verified for q-PCR and western blot analysis.
# Colonies were stained with methylene blue, and only colonies containing ≥50 cells were counted. The percentage of survival was determined relative to untreated control averaged over 3 independent experiments.
smiles,measurement,setting,value
"O=c1[nH]c(=O)n([C@H]2C[C@H](O)[C@@H](CO)O2)cc1F [5-FdU, 5-fluorodeoxyuridine]",cell survival in shSCR-transfected cells,"DLD1 colon cancer cells; DLD1 shSCR, high concentrations",moderate loss of cell viability
same,effect of UDG depletion on drug sensitivity,DLD1 colon cancer cells; DLD1 shUDG vs shSCR,highly sensitized
same,resistance compared with p53 WT cells,[1],significantly more resistant
same,resistance compared with p53 WT cells,[1]; listed as 5FdU,relatively more resistant
same,IC50,"[1]; read-out: IC50 values, p53 mutant or deficient lines",> 100 nM
same,effect of UDG depletion on cytotoxicity,[1],selectively sensitized
same,effect of UDG depletion on cytotoxicity,[1]; listed as 5FdU,overcame this resistance
same,IC50,H1299,269.6 ± 0.73 nM
same,mean fiber length of nascent DNA strands,DLD1 cells [2]; UDG depleted cells,2.8 μm
same,reduction of mean fiber length,DLD1 cells [2]; UDG depleted cells,63%
same,mean fiber length of nascent DNA strands,DLD1 cells [2]; shSCR-transfected cells,5.7 μm
same,reduction of mean fiber length,DLD1 cells [2]; shSCR-transfected cells,23%
same,level of uracil and 5-FU in UDG depleted cells relative to shSCR-transfected cells,DLD1 cells [3]; 100 nM 5-FdU 24 h,about three times higher
same,levels of AP sites,DLD1 cells [3]; shSCR-transfected cells,remained low
same,levels of AP sites,"DLD1 cells [3]; shUDG-transfected cells, dose dependent",dramatic increase
same,γH2AX foci number and percentage of cells with over 10 foci over time,[4]; HEC1A UDG depleted,remained high
same,γH2AX foci number and percentage of cells with over 10 foci over time,"[4]; HEC1A shSCR, after maximum at 48 h",reduced at 72 h and 96 h
same,γH2AX foci number and percentage of cells with over 10 foci over time,γH2AX foci in DLD1 cells; DLD1 UDG depleted,remained persistent
same,γH2AX foci number and percentage of cells with over 10 foci over time,"γH2AX foci in DLD1 cells; DLD1 shSCR, after maximum at 12 h",gradually declined
same,effect of UDG depletion on cytotoxicity,HCT116 p53 WT cells [5],did not significantly affect
same,released uracil and 5-FU from genomic DNA,DLD1 cells [6]; shSCR-transfected cells,Very low levels
same,released uracil and 5-FU from genomic DNA,DLD1 cells [6]; shUDG-transfected cells,significant increase
same,cell death (Annexin V and PI positive),HCT116 p53 WT cells [7],significant cell death
same,cell death (Annexin V and PI positive),"HCT116 p53 KO cells; UDG depleted cells, 48 to 96 h",significantly elevated
same,cell death (Annexin V and PI positive),HCT116 p53 KO cells; UDG expressing cells,significantly lower
same,IC50,A2780,1.32 ± 0.33 nM
